Experimental data as given in patent US8680059B2, “Oligopeptide acetate and formulations thereof” (Biotempt B.V., priority 1998, dated 2014).
“And” between values parts separate entries of the source, which are not always exact repeats. Identical values can stand only once.

System: BALB/c mice injected i.p. with LPS (E. coli 026:B6)
Test: LPS-induced septic shock (endotoxin model) in BALB/c mice
Assay type: in vivo, mouse
Set-up: key to Sickness score of individual mouse: 0: No abnormalities.; 1: Percolated fur, but no detectable behavior differences compared to normal mice.; 2: Percolated fur, huddle reflex, responds to stimuli (such as tap on cage), just as active during handling as healthy mouse.; 3: Slower response to tap on cage, passive or docile when handled, but still curious when alone in a new setting.; 4: Lack of curiosity, little or no response to stimuli, quite immobile.; 5: Labored breathing, inability or slow to self-right after being rolled onto back (moribund, sacrificed).; Dead
Conditions: for number of mice with sickness score 1 / number of mice with sickness score 2: peptide twice (t = 2 hr and 24 hr) 5 mg/kg; for Survival %: group of 6, 48 hrs
Description: Mice used in sepsis or septic shock experiments: Female BALB/c mice of 8-12 weeks of age were used for all experiments. The animals were bred in our facility under specific pathogen-free conditions according to the protocols described in the Report of European Laboratory Animal Science Associations (FELASA) Working group on Animal Health (Laboratory Animals 28: 1-24, 1994).
Injection protocols: For the endotoxin model, BALB/c mice were injected i.p. with 150-300 μg LPS (E. coli 026:B6; Difco Lab., Detroit, Mich., USA). Control groups were treated with PBS i.p. only. To test the effect of peptides, they were dissolved in PBS and injected i.p. at predetermined points in time after LPS treatment.
Mice were scored for sickness severity using the following measurement scheme: • 0 No abnormalities. • 1 Percolated fur, but no detectable behavior differences compared to normal mice. • 2 Percolated fur, huddle reflex, responds to stimuli (such as tap on cage), just as active during handling as healthy mouse. • 3 Slower response to tap on cage, passive or docile when handled, but still curious when alone in a new setting. • 4 Lack of curiosity, little or no response to stimuli, quite immobile. • 5 Labored breathing, inability or slow to self-right after being rolled onto back (moribund, sacrificed). • D Dead […]
A comparative trial was set up to compare peptide MTR and SEQ ID NO:2. The comparative trial comprised 6 groups of 6 animals; two groups (1A and 1B) receiving placebo (PBS), one group (2) peptide MTR (source Pepscan, Lelystad, NL), one group (3) receiving peptide MTR (source Ansynth), one group (4) receiving peptide SEQ ID NO:2 (source Pepscan) and one group peptide SEQ ID NO:2 (source Ansynth). Peptide/placebo in these groups was administered 2 hours after LPS. LPS (source) was used at 10-11 mg/kg. Sickness scores were done at 0, 2, 22 26 42 and 48 hours after LPS injection.

[1] = 5 mg/kg i.p. given both early (2 hours) or late (24 hours)

AQGV [tetrapeptide derived from human chorionic gonadotropin, alanine replacement of LQGV]
clinical signs of shock at 84 hours after LPS-treatment [1]: no remaining clinical signs of shock | survival at 84 hours after LPS-treatment [1]: 100% | number of mice with sickness score 1 (LPS dose 10.5, t = 24 hr): 2 | number of mice with sickness score 2 (LPS dose 10.5, t = 24 hr): 3 | number of mice with sickness score 1 (LPS dose 10.5, t = 48 hr): 5 | number of mice with sickness score 1 (LPS dose 11, t = 24 hr): 2 | number of mice with sickness score 2 (LPS dose 11, t = 24 hr): 4 | number of mice with sickness score 1 (LPS dose 11, t = 48 hr): 6 | % survival (single injection 5 mg/kg 2 hours after LPS (300 μg), time 0 hours): 100% | % survival (single injection 5 mg/kg 2 hours after LPS, time 14 hours): 100% | % survival (single injection 5 mg/kg 2 hours after LPS, time 24 hours): 100% | % survival (single injection 5 mg/kg 2 hours after LPS, time 48 hours): 100% | % survival (single injection 5 mg/kg 2 hours after LPS, time 84 hours): 100% | % survival (single injection 5 mg/kg 24 hours after LPS (300 μg), time 0 hours): 100% | % survival (single injection 5 mg/kg 24 hours after LPS, time 14 hours): 100% | % survival (single injection 5 mg/kg 24 hours after LPS, time 24 hours): 100% | % survival (single injection 5 mg/kg 24 hours after LPS, time 48 hours): 100% | % survival (single injection 5 mg/kg 24 hours after LPS, time 84 hours): 100% | Sickness score of individual mouse (source Ansynth (#Ansynth 12/46) 2 hours after LPS 10-11 mg/kg, 0 hrs (before peptide)): 0 | Sickness score of individual mouse (source Ansynth (#Ansynth 12/46) 2 hours after LPS 10-11 mg/kg, 2 hrs (at peptide administration)): 2 | Sickness score of individual mouse (source Ansynth (#Ansynth 12/46) 2 hours after LPS 10-11 mg/kg, 22 hrs): 3 (2×) and 2 (3×) and 4 | Sickness score of individual mouse (source Ansynth (#Ansynth 12/46) 2 hours after LPS 10-11 mg/kg, 26 hrs): 3 (2×) and 2 (3×) and 4 | Sickness score of individual mouse (source Ansynth (#Ansynth 12/46) 2 hours after LPS 10-11 mg/kg, 42 hrs): 2 and 3 and 1 (3×) and 5 | Sickness score of individual mouse (source Ansynth (#Ansynth 12/46) 2 hours after LPS 10-11 mg/kg, 48 hrs): 1 (5×) and dead | Survival % (source Ansynth (#Ansynth 12/46) 2 hours after LPS 10-11 mg/kg): 83% | Sickness score of individual mouse (source Pepscan (#970/#971) 5 mg/kg 2 hours after LPS 10-11 mg/kg, 0 hrs (before peptide)): 0 | Sickness score of individual mouse (source Pepscan (#970/#971) 5 mg/kg 2 hours after LPS 10-11 mg/kg, 2 hrs (at peptide administration)): 2 | Sickness score of individual mouse (source Pepscan (#970/#971) 5 mg/kg 2 hours after LPS 10-11 mg/kg, 22 hrs): 2 (4×) and 3 and 4 | Sickness score of individual mouse (source Pepscan (#970/#971) 5 mg/kg 2 hours after LPS 10-11 mg/kg, 26 hrs): 2 (3×) and 3 (2×) and 5 | Sickness score of individual mouse (source Pepscan (#970/#971) 5 mg/kg 2 hours after LPS 10-11 mg/kg, 42 hrs): 2 (5×) and dead | Sickness score of individual mouse (source Pepscan (#970/#971) 5 mg/kg 2 hours after LPS 10-11 mg/kg, 48 hrs): 2 (3×) and 1 (2×) | Survival % (source Pepscan (#970/#971) 5 mg/kg 2 hours after LPS 10-11 mg/kg): 83%
